According to US7202280B2, “Methods for the treatment and prevention of pancreatitis and for induction of liver regeneration” (priority 2002, dated 2007):

System: syngenic and metallothionein-SSAT mice
Assay: Hepatic, pancreatic and renal polyamine concentration in syngenic and metallothionein-SSAT mice after analogue
Assay type: in vivo, mouse
Details: 24 h before sacrifice
Method: α-methylspermidine, Bis-α-methylspermine and α-methylspermine were administered in saline. […] The data are expressed as means ±S.D. For statistical analysis, the two-tailed Student's t test was used.

## CC(N)CCNCCCCNCCC(C)N (stereo not drawn) [bis-α-methylspermine, 1,12-dimethylspermine]
Sg (syngenic) mice, 12.5 mg/kg
  hepatic concentration, Bis-α-Methylspermine: 159.88 pmoles/mg tissue wet weight
  hepatic polyamine concentration, N^8-Acetylspermidine: 0.75 pmoles/mg tissue wet weight
  hepatic polyamine concentration, Putrescine: 92.42 pmoles/mg tissue wet weight
  hepatic polyamine concentration, Spermidine: 927.28 pmoles/mg tissue wet weight
  hepatic polyamine concentration, Spermine: 708.04 pmoles/mg tissue wet weight
  pancreatic concentration, Bis-α-Methylspermine: 259.30 ± 10.04 pmoles/mg tissue wet weight
  pancreatic polyamine concentration, N^8-Acetylspermidine: 60.41 pmoles/mg tissue wet weight
  pancreatic polyamine concentration, Putrescine: 298.55 ± 75.14 *^+ pmoles/mg tissue wet weight
  pancreatic polyamine concentration, Spermidine: 6575.15 ± 614.21 ^+ pmoles/mg tissue wet weight
  pancreatic polyamine concentration, Spermine: 981.28 ± 201.81 ^+ pmoles/mg tissue wet weight
  renal concentration, Bis-α-Methylspermine: 259.30 pmoles/mg tissue wet weight
  renal polyamine concentration, N^1-Acetylspermidine: 33.17 pmoles/mg tissue wet weight
  renal polyamine concentration, N^8-Acetylspermidine: 17.62 ± 6.43 pmoles/mg tissue wet weight
  renal polyamine concentration, Putrescine: 142.47 pmoles/mg tissue wet weight
  renal polyamine concentration, Spermidine: 246.29 pmoles/mg tissue wet weight
  renal polyamine concentration, Spermine: 456.65 pmoles/mg tissue wet weight
Sg (syngenic) mice, 25 mg/kg
  hepatic concentration, Bis-α-Methylspermine: 317.22 pmoles/mg tissue wet weight
  hepatic polyamine concentration, N^8-Acetylspermidine: 2.38 pmoles/mg tissue wet weight
  hepatic polyamine concentration, Putrescine: 73.69 pmoles/mg tissue wet weight
  hepatic polyamine concentration, Spermidine: 879.17 pmoles/mg tissue wet weight
  hepatic polyamine concentration, Spermine: 699.86 pmoles/mg tissue wet weight
  pancreatic concentration, Bis-α-Methylspermine: 343.17 ± 35.11 pmoles/mg tissue wet weight
  pancreatic polyamine concentration, Putrescine: 467.21 ± 419.85^++ pmoles/mg tissue wet weight
  pancreatic polyamine concentration, Spermidine: 5733.90 ± 300.80 ^+ pmoles/mg tissue wet weight
  pancreatic polyamine concentration, Spermine: 528.55 ± 241.57 ^+ pmoles/mg tissue wet weight
  renal concentration, Bis-α-Methylspermine: 343.17 pmoles/mg tissue wet weight
  renal polyamine concentration, N^1-Acetylspermidine: 28.39 pmoles/mg tissue wet weight
  renal polyamine concentration, N^8-Acetylspermidine: 17.70 ± 10.63 pmoles/mg tissue wet weight
  renal polyamine concentration, Putrescine: 87.46 pmoles/mg tissue wet weight
  renal polyamine concentration, Spermidine: 257.13 pmoles/mg tissue wet weight
  renal polyamine concentration, Spermine: 459.99 pmoles/mg tissue wet weight
Sg (syngenic) mice, 37.5 mg/kg
  hepatic concentration, Bis-α-Methylspermine: 283.40 pmoles/mg tissue wet weight
  hepatic polyamine concentration, N^1-Acetylspermidine: 14.57 pmoles/mg tissue wet weight
  hepatic polyamine concentration, N^8-Acetylspermidine: 2.10 pmoles/mg tissue wet weight
  hepatic polyamine concentration, Putrescine: 96.27 pmoles/mg tissue wet weight
  hepatic polyamine concentration, Spermidine: 772.68 pmoles/mg tissue wet weight
  hepatic polyamine concentration, Spermine: 754.59 pmoles/mg tissue wet weight
  pancreatic concentration, Bis-α-Methylspermine: 415.40 ± 92.86 pmoles/mg tissue wet weight
  pancreatic polyamine concentration, N^1-Acetylspermidine: 123.67 pmoles/mg tissue wet weight
  pancreatic polyamine concentration, N^8-Acetylspermidine: 55.34 pmoles/mg tissue wet weight
  pancreatic polyamine concentration, Putrescine: 233.06 ± 45.81 *^+ pmoles/mg tissue wet weight
  pancreatic polyamine concentration, Spermidine: 5997.63 ± 24.26 ^+ pmoles/mg tissue wet weight
  pancreatic polyamine concentration, Spermine: 708.66 ± 179.23 ^++ pmoles/mg tissue wet weight
  renal concentration, Bis-α-Methylspermine: 415.40 pmoles/mg tissue wet weight
  renal polyamine concentration, N^1-Acetylspermidine: 28.73 pmoles/mg tissue wet weight
  renal polyamine concentration, N^8-Acetylspermidine: 15.95 ± 6.92 pmoles/mg tissue wet weight
  renal polyamine concentration, Putrescine: 93.95 pmoles/mg tissue wet weight
  renal polyamine concentration, Spermidine: 289.83 pmoles/mg tissue wet weight
  renal polyamine concentration, Spermine: 513.58 pmoles/mg tissue wet weight
Sg (syngenic) mice, 50 mg/kg
  hepatic concentration, Bis-α-Methylspermine: 379.77 pmoles/mg tissue wet weight
  hepatic polyamine concentration, N^8-Acetylspermidine: 8.72 pmoles/mg tissue wet weight
  hepatic polyamine concentration, Putrescine: 52.40 pmoles/mg tissue wet weight
  hepatic polyamine concentration, Spermidine: 688.44 pmoles/mg tissue wet weight
  hepatic polyamine concentration, Spermine: 687.71 pmoles/mg tissue wet weight
  pancreatic concentration, Bis-α-Methylspermine: 459.26 ± 18.65 pmoles/mg tissue wet weight
  pancreatic polyamine concentration, N^8-Acetylspermidine: 82.23 pmoles/mg tissue wet weight
  pancreatic polyamine concentration, Putrescine: 297.48 ± 123.94^++ pmoles/mg tissue wet weight
  pancreatic polyamine concentration, Spermidine: 5613.06 ± 608.55 ^++ pmoles/mg tissue wet weight
  pancreatic polyamine concentration, Spermine: 561.50 ± 77.66 ^++ pmoles/mg tissue wet weight
  renal concentration, Bis-α-Methylspermine: 459.26 pmoles/mg tissue wet weight
  renal polyamine concentration, N^8-Acetylspermidine: 21.07 ± 5.81 pmoles/mg tissue wet weight
  renal polyamine concentration, Putrescine: 98.32 pmoles/mg tissue wet weight
  renal polyamine concentration, Spermidine: 248.63 pmoles/mg tissue wet weight
  renal polyamine concentration, Spermine: 424.06 pmoles/mg tissue wet weight
Tg (transgenic) mice, 12.5 mg/kg
  hepatic concentration, Bis-α-Methylspermine: 29.55 pmoles/mg tissue wet weight
